Values belong to the compound of their own block, whether it stands above or below them.
Legend:
rat red blood cells = assay: Hemolysis assay; format: cell-based; settings: 2 hrs at 37° C., 5 mM
Method: We also examined the hemolytic activity of plain micelles prepared from PEG-lipid and lipopeptide conjugates on rat red blood cells and compared the results to two widely used ethoxylated nonionic surfactants: Triton X-100 and Tween 80. In the studies of FIG. 6, rat red blood cells (1%) were incubated with surfactants at indicated concentrations for 2 hrs at 37° C. After such incubation, supernatants were carefully withdrawn, measured for at OD540 nm, and calculated based on OD value under a condition that total hemolysis occurred.
1(j). Hemolysis assay. Rat red blood cells (RBCs) were isolated from freshly collected rat blood with added anticoagulant by washing three times with 10 volumes of cold PBS (1500 rpm for 10 min). RBCs were then diluted to 2% w/v with ice cold DPBS and utilized immediately for the hemolysis assay. One mL of diluted RBC suspension was treated with various concentrations (0-5 mM) of PEG-lipopeptides, Tween 80, and Triton X-100, respectively, and then incubated at 37° C. in an incubator shaker for 2 h. The samples were centrifuged at 1500 rpm for 10 min at 4° C., and 100 μL of supernatant from each sample was transferred into a 96-well plate. The release of hemoglobin was determined by the absorbance at 540 nm using a micro-plate reader. […] Hemoglobin release was calculated as (ODsample−ODnegative control)/(ODpositive control−ODnegative control)×100%.

[1] = Micelle-facilitated solubilization of JP4-039; format: physicochemical; settings: at comparable molar ratios
Method: In the solubilization studies of FIG. 4, various amounts of tetra chain PEG5,000-lysyl-[lysyl-(α-Fmoc-ε-oleyol-lysine)2]2 were mixed with JP4-039 in CHCl3 followed by solvent evaporation, the drug-loaded micelles were prepared by hydration in saline. The amounts of solubilized JP4-030 were determined by OD448 measurements from supernatant.
Lipopeptides, amino acid derivatives or nitroxide compounds were first dissolved in chloroform. The solutions were aliquoted to a glass test tube, mixed well, then blown with a constant nitrogen stream to remove the bulk of the solvent. The residual solvent was removed by applying high vacuum for 2 hrs. To determine micelle-facilitated solubilization of JP4-039, various molar ratios of surfactant to drug were applied to make surfactant-drug mixture in water (final concentration of JP4-039 was 5 mg/mL). After at least 30 minutes, the samples were briefly centrifuged at 13,000 rpm. One half of the supernatants was recovered, to which an equal volume of ethanol was added to dissolve/disrupt micelle drug complexes. The amounts of drug in the samples were quantitated using OD448 nm.

[2] = tested on: PC-3 human prostate cancer cell line; assay: In vitro cytotoxicity (MTT), PC-3; format: cell-based; settings: PC-3, 72 h, FIG. 14B
Method: (§1) The tumor-inhibitory efficacy of PEG-Fmoc/PTX was also investigated both in vitro and in vivo. In vitro cytotoxicity of PEG-Fmoc/PTX was evaluated in mouse metastatic breast cancer cell line 4T1.2, and two human prostate cancer cell lines, PC-3 and DU145. […] Without limitation to any mechanism, the increased cytotoxicity of PEG-Fmoc/PTX may, for example, be attributable to facilitated entry of PTX into tumor cells.
(§2) 2(b)(viii). In Vitro Cytotoxicity. Mouse metastatic breast cancer cell line 4T1.2, and two human prostate cancer cell lines PC-3 and DU145 were utilized to evaluate the in vitro cytotoxicity of PTX/PEG-Fmoc2. Cells were seeded in 96-well plates at 1000 (4T1.2), 2000 (DU145) and 3000 (PC-3) cells per well. […] Seventy-two h later, 20 μL of 3-(4,5-dimethylthiazol-2-yl)-2,5-diphenyltetrazoliumbromide (MTT, 5 mg/mL) was added into each well. Following incubation for 4 h, the medium was removed and 150 μL of DMSO was added to each well to solubilize the formazan crystal. The absorbance of each well was detected at 550 nm with a reference wavelength at 630 nm using a microplate reader, and cell viability was calculated based on the formula below. Untreated cells were included as a control.
(§3) % cytotoxicity=[1−(ODtreat−ODblank)/(ODcontrol−ODblank)]×100%

[3] = tested on: 4T1.2 mouse metastatic breast cancer cell line; assay: In vitro cytotoxicity (MTT), 4T1.2; format: cell-based; settings: 4T1.2, 72 h, FIG. 14A
Method: as §1, §2, §3

[4] = CMC measurement with pyrene as a fluorescence probe; format: physicochemical
Method: (§4) The size distribution of PTX/PEG-Fmoc2 mixed nanomicelles was examined by dynamic light scattering (DLS) via a Malvern Zeta Nanosizer, and the morphology was observed by transmission electron microscopy (TEM) after negative staining. The CMC measurement was performed as reported before with pyrene as a fluorescence probe. To quantify PTX in the micelles, PTX was extracted by methanol, and detected by Waters Alliance 2695-2998 high-performance liquid chromatography (HPLC) system with a RP-18 column (250 mm×4.6 mm) equipped with a UV detector at 227 nm at room temperature. A mixture of methanol/water (80:20, v/v) was used as mobile phase at a flow rate at 0.8 mL/min. The drug loading capacity (DLC) and efficiency (DLE) were calculated as set forth above.

[5] = Size distribution of PTX/PEG-Fmoc2 mixed nanomicelles (DLS); format: physicochemical
Method: 2(b)(iv). Preparation and biophysical characterization of PTX/PEG-Fmoc2 mixed micelles. Thin-film hydration method was utilized for preparation of PTX/PEG-Fmoc2 mixed nanomicelles. PEG-Fmoc2 and PTX in chloroform were well mixed in a glass tube at designated molar ratios. A thin film of carrier/drug mixture was generated through removal of the organic solvent by a gentle stream of nitrogen. The trace amount of solvent was further removed via vacuum for 2 h. Then the film was hydrated and suspended in DPBS by vortex to obtain a clear solution of PTX/PEG-Fmoc2 mixed nanomicelles. Any non-entrapped drug was removed by filtration through 220 nm PVDF syringe filter.
as §4

[6] = tested on: DU145 human prostate cancer cell line; assay: In vitro cytotoxicity (MTT), DU145; format: cell-based; settings: DU145, 72 h, FIG. 14C
Method: as §1, §2, §3

[7] = Particle size measurement by laser dynamic light scattering; format: physicochemical; settings: agent formulated with multi-chain PEGylated micelle-forming surfactant
Method: 1(f). Particle size measurement. […] Samples were further diluted ten times in distilled water and sizes were measured by laser dynamic light scattering using a particle sizer (Zetasizer Nano ZS instrument, available from Malvern Instruments Ltd of Worcestershire, United Kingdom). Size measurement of emulsion particles were conducted using a Coulter N4 particle sizer after a 100-fold dilution in saline.

[8] = Oxidation of ECGC in PBS on exposure to air; format: physicochemical; settings: exposed to air, free 24 hrs, complex over a week
[9] = Solubilization of tested agents with multi-chain PEGylated micelle-forming surfactants (Table 1)
Description: The exact mechanism for the protection of ECGC against oxygen in the form of complex is unknown.

Compound: Triton X-100
Hemolysis (rat red blood cells): 100%

Compound: methoxy PEG2,000-carbamoyl-1-palmitoyl-2-oleoyl-sn-glycero-3-phosphotidylethanolamine [compound 8]
Activity in forming a stable JP4-039-containing micelle solution [1]: inactive

Compound: PEG5K-lysyl-(α-Fmoc-ε-t-Boc-lysine)2 [PEG-Fmoc]
Cytotoxicity (tumor cell inhibition) [2]: did not show apparent toxicity
Cytotoxicity (tumor cell inhibition) [3]: did not show apparent toxicity
CMC [4]: 5.244 µM
Micelle size in aqueous solution ([5]; carrier alone): 25˜30 nm
PDI ([5]; drug-free carrier 5 mg/mL): 0.488
Particle size ([5]; drug-free carrier 5 mg/mL): 28.55 ± 0.27 nm
Cytotoxicity (tumor cell inhibition) [6]: did not show apparent toxicity

Size +/− SD [7]: 89.9 +/− 12 nm
solubility ([9]; tested agent itself, Table 1): freely
Soluble at ([9]; with multi-chain PEGylated micelle-forming surfactant): 5 mg/mL
Compound: O=C(O[C@@H]1Cc2c(O)cc(O)cc2O[C@@H]1c1cc(O)c(O)c(O)c1)c1cc(O)c(O)c(O)c1 [EGCG, epigallocatechin gallate]
Oxidation on storage [8]: readily oxidized
